# Reference: ChEMBL document CHEMBL1132524, “Synthesis and evaluation of analogs of Efavirenz (SUSTIVA) as HIV-1 reverse transcriptase inhibitors” (Bioorg Med Chem Lett, 1999)
# Tests used:
# [1] = molecular target: Human immunodeficiency virus type 1 reverse transcriptase (Human immunodeficiency virus 1, UniProt Q72547); assay: Inhibitory activity against HIV-1 reverse transcriptase enzyme
# [2] = test system: Human immunodeficiency virus 1
Compound,IC50 [1] [µM],IC90 [2] [µM]
O=C1Nc2ccccc2C(C#CC2CC2)(C(F)(F)F)O1 (stereo not given),0.478,0.0103
O=C1Nc2c(F)cc(Cl)cc2C(C#CC2CC2)(C(F)(F)F)O1 (stereo not given),,0.00719
O=C1Nc2ccc(F)cc2C(C#CC2CC2)(C(F)(F)F)O1 (stereo not given),0.19,0.00735
O=C1Nc2c(Cl)cc(Cl)cc2C(C#CC2CC2)(C(F)(F)F)O1 (stereo not given),> 2,0.0286
O=C1Nc2cc(F)c(F)c(F)c2C(C#CC2CC2)(C(F)(F)F)O1 (stereo not given),0.442,0.0196
O=C1Nc2ccc(F)c(F)c2C(C#CC2CC2)(C(F)(F)F)O1 (stereo not given),0.084,
Cc1ccc2c(c1)C(C#CC1CC1)(C(F)(F)F)OC(=O)N2 (stereo not given),0.133,0.00711
O=C1Nc2ccc(OC(F)(F)F)cc2C(C#CC2CC2)(C(F)(F)F)O1 (stereo not given),1.25,0.0189
O=C1Nc2c(F)ccc(F)c2C(C#CC2CC2)(C(F)(F)F)O1 (stereo not given),0.796,0.018
O=C1Nc2cc3ccccc3cc2C(C#CC2CC2)(C(F)(F)F)O1 (stereo not given),1.91,0.0269
COc1ccc2c(c1)C(C#CC1CC1)(C(F)(F)F)OC(=O)N2 (stereo not given),0.131,0.002
O=C1Nc2c(cc(F)c(F)c2F)C(C#CC2CC2)(C(F)(F)F)O1 (stereo not given),> 2,0.418
O=C1Nc2ccc(-c3ccccc3)cc2C(C#CC2CC2)(C(F)(F)F)O1 (stereo not given),> 2,0.249
O=C1Nc2c(F)cc(F)c(F)c2C(C#CC2CC2)(C(F)(F)F)O1 (stereo not given),0.8,0.014
CN(C)c1ccc2c(c1)C(C#CC1CC1)(C(F)(F)F)OC(=O)N2 (stereo not given),0.816,0.00833
CC(C)c1ccc2c(c1)C(C#CC1CC1)(C(F)(F)F)OC(=O)N2 (stereo not given),1.96,0.0278
